Experiments:
[1] = target: T1, interaction between the integrin LFA-1 and its adhesion partner ICAM-1 (Homo sapiens, UniProt P20701); assay: ICAM-1/LFA-1 Biochemical Interaction Assay; format: binding; conditions: 4 μM compound; recombinant LFA-1, biotinylated ICAM-1/Ig
T1 construct: Recombinant LFA-1 (100 μL of 0.7 μg/ml mL, ICOS Corporation) in D-PBS; purchased ICOS Corporation
Description: Compounds that antagonize the interaction between ICAM-1 and LFA-1 can be identified, and their activities quantitated, using both biochemical and cell-based adhesion assays. A primary biochemical assay measures the ability of the compound in question to block the interaction between the integrin LFA-1 and its adhesion partner ICAM-1, as described below:
ICAM-1/LFA-1 Biochemical Interaction Assay
In the biochemical assay, 100 μL of anti-LFA-1 antibody (ICOS Corporation) at a concentration of 5 μg/ml mL in Dulbecco's phosphate-buffered saaline (D-PBS) is used to coat wells of a 96-well microtiter plate overnight at 4° C. The wells are were then washed twice with wash buffer (D-PBS w/o Ca^++ or Mg^++, 0.05% Tween 20) and blocked by addition of 200 μL of D-PBS, 5% fish skin gelatin. Recombinant LFA-1 (100 μL of 0.7 μg/ml mL, ICOS Corporation) in D-PBS is was then added to each well. Incubation continues continued for 1 hour at room temperature and the wells are were washed twice with wash buffer. Serial dilutions of compounds being assayed as ICAM-1/LFA-1 antagonists, were prepared as 10 mM stock solutions in dimethyl sulfoxide (DMSO), are were diluted in D-PBS, 2 mM MgCl2, 1% fish skin gelatin and 50 μL of each dilution was added to duplicate wells. This is was followed by the addition of 50 μL of 0.8 μg/ml mL biotinylated recombinant ICAM-1/Ig (ICOS Corporation) to the wells and the plates are were incubated at room temperature for 1 hour. The wells are were then washed twice with wash buffer and 100 μL of Europium-labeled Streptavidin (Wallac Oy) diluted 1:100 in Delfia assay buffer (Wallac Oy), are was then added to the wells. Incubation proceeds proceeded for 1 hour at room temperature. The wells are were washed eight times with wash buffer and 100 μL of enhancement solution (Wallac Oy, cat. No. 1244-105) are was added to each well. Incubation proceeds proceeded for 5 minutes with constant mixing. Time-resolved fluorimetry measurements are were made using the a Victor 1420 Multilabel Counter (Wallac Oy) and the percent inhibition of each candidate compound is was calculated using the following equation: [formula] where “background” refers to wells that are were not coated with anti-LFA-1 antibody.

[2] = tested on: adherence of JY-8 cells (expressing LFA-1) to immobilized ICAM-1; assay: ICAM-1/JY-8 Cell Adhesion Assay; format: cell-based, human
Description: ICAM-1/JT-8 Cell Adhesion Assay
For measurment measurement of inhibotory inhibitory activity in the cell-based adhesion assay, 96-well microtiter plates are were coated with 70 μL of recombinat recombinant ICAM-1/Ig (ICOS Corporation) at a concentration of 5 μg/mL in D-PBS w/o without Ca^++ or Mg++ or Mg^++ overnight at 4° C. The wells are were then washed twice with D-PBS and blocked by addition of 200 μL of D-PBS, 5% fish skin gelatin by incubation for 1 hour at room temperature. […] The percent inhibition of a candidate compound at a given concentration is was calculated using the following equation: [formula] and these concentration/inhibition data are were used to generate does response curves, from which IC50 values are were derived.

[3] = tested on: adhesion of JY-8 cells (expressing LFA-1) to immobilized ICAM-3; assay: ICAM-3/JY-8 Cell Adhesion Assay; format: cell-based, human; conditions: 0.6 μM compound, JY-8 cells on immobilized ICAM-3/Ig; for inhibition at 0.6 µM: Homo sapiens
Description: As such, it is expected that these compounds should block the interaction of LFA-1 with other CAM's. […] Compounds of the present invention may be evaluated for their ability to block the adhesion of JY-8 cells (a human EBV-transformed B cell line expressing LFA-1 on its surface) to immobilized ICAM-3, as follows:
ICAM-3/JY-8 Cell Adhesion Assay
For measurement of inhibitory activity in the cell-based adhesion assay, 96-well microtiter plates are were coated with 50 μL of recombinant ICAM-3/Ig (ICOS Corporation) at a concentration of 10 μg/mL in D-PBS w/o without Ca^++ or Mg^++ overnight at 4° C. The wells are were then washed twice with D-PBS, blocked by addition of 100 μL of D-PBS, 1% bovine serum albumin (BSA) by incubation for 1 hour at room temperature, and washed once with RPMI-1640/5% heat-inactivated fetal bovine serum (adhesion buffer). Dilutions of compounds to be assayed for ICAM-3/LFA-1 antagonistic activity are were prepared in adhesion buffer from 10 mM stock solutions in DMSO and 100 μL are were added to duplicate wells. JY-8 cells (a human EBV-transformed B cell line expressing LFA-1 on its surface; 100 μL at 0.75×10^6 cells/ml mL in adhesion buffer) are were then added to the wells. Microtiter plates are were incubated for 30 minutes at room temperature; the adherent cells are were then fixed with 50 μL of 14% glutaraldehyde/D-PBS and were incubated for an additional 90 minutes. The wells are were washed gently with dH2O; 50 μL of dH2O is was added, following followed by 50 μL of 1% crystal violet. After 5 minutes the plates are were washed 3× times with dH2O; 75 μL of dH2O and 225 μL of 95% EtOH are were added to each well to extract the crystal violet from the cells. Absorbance is was measured at […] in an ELISA plate reader. The percent inhibition of a candidate compound is was calculated using the following equation. [formula]

[4] = Homo sapiens, JY-8, JY-8 cells on immobilized ICAM-1/Ig
[5] = JY-8 cells on immobilized ICAM-1/Ig

T1 sequence (P20701 26-1170): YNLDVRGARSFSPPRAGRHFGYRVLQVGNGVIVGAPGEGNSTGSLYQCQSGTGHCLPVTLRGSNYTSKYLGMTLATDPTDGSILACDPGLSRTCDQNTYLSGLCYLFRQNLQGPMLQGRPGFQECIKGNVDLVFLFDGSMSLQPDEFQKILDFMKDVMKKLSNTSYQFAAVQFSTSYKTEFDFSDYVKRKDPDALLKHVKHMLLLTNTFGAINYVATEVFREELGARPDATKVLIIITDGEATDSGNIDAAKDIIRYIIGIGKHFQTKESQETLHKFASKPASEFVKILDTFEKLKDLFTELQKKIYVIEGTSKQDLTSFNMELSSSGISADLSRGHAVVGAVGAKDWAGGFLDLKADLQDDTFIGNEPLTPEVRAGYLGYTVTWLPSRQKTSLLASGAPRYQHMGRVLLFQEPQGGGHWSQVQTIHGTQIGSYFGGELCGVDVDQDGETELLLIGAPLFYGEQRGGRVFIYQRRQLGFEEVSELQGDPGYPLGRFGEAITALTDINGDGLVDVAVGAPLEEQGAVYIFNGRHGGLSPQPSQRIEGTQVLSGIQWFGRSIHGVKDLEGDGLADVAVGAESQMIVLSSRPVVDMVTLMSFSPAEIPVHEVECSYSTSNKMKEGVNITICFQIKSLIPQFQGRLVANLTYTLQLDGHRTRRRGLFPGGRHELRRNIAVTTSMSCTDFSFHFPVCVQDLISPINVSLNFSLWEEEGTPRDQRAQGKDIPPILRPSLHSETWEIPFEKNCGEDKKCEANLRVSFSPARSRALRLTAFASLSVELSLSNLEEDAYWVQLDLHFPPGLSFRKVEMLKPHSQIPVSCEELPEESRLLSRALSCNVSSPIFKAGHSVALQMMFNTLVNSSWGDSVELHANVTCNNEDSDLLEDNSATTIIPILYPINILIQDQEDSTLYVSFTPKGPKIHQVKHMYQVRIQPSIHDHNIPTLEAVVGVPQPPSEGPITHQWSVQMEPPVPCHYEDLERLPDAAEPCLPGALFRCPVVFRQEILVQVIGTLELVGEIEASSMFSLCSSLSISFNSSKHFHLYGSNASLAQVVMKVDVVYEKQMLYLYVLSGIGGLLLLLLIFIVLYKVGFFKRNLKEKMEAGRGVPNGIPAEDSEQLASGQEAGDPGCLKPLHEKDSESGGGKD
T1 sequence (P05107 23-769 partner): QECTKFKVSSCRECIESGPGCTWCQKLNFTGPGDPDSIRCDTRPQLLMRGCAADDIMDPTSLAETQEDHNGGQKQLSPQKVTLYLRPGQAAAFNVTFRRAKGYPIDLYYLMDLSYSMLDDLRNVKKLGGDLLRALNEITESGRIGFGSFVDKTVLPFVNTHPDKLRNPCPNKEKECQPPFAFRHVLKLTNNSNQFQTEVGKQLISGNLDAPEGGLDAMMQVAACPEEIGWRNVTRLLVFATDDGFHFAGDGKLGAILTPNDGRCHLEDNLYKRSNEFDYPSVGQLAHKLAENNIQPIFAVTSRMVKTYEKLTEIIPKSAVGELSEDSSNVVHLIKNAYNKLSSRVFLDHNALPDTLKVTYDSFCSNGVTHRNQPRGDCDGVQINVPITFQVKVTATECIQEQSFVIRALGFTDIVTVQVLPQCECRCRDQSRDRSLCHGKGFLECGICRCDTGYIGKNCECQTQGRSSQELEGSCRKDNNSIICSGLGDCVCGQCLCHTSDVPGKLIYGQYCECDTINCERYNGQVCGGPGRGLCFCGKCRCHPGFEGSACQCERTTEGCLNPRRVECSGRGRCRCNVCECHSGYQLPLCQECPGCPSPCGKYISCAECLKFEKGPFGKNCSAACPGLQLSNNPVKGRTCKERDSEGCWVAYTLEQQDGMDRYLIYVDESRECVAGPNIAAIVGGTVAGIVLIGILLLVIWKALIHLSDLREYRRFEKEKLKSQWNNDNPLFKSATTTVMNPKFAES

| Structure (SMILES) | inhibition at 4 µM [1] | IC50 [2, 4] | % inhibition @ 4 μM [1] | IC50 [2, 5] | IC50 ([2]; Homo sapiens, JY-8 cells on immobilized ICAM-1/Ig) | inhibition at 0.6 µM [3] | % inhibition @ 0.6 μM [3] |
| --- | --- | --- | --- | --- | --- | --- | --- |
| CC(=O)N1CCN(C(=O)/C=C/c2ccc(Sc3ccc(Cl)cc3Cl)c(Cl)c2)CC1 [Example 9, (2,4-Dichlorophenyl)[2-chloro-4-(E-((4-acetylpiperazin-1-yl)carbonyl)ethenyl)phenyl]sulfide] | 93% | 130 nM | – | – | – | 100% | – |
| O=C(/C=C/c1ccc(Sc2ccccc2Br)c(Cl)c1)N1CCOCC1 [Example 12] | – | – | 90% | 360 nM | – | – | 100% |
| O=C(/C=C/c1ccc(Sc2ccccc2Br)c(Cl)c1)N1CCC(O)CC1 [Example 18] | – | – | 86% | 130 nM | – | – | 100% |
| O=C(/C=C/c1ccc(Sc2ccccc2Br)c(Cl)c1)N1CCCC(CO)C1 (stereo not drawn) [Example 15, (2-(Bromophenl)[2-chloro-4-(E-((3-hydroxymethyl)piperidin-1-yl)carbonyl)ethenyl)phenyl]sulfide] | – | – | 88% | 140 nM | – | – | 100% |
| CC(=O)NC1CCN(C(=O)/C=C/c2ccc(Sc3ccccc3Br)c(Cl)c2)C1 (stereo not drawn) [Example 17] | – | – | 84% | 5800 nM | – | – | 100% |
| CC(=O)N1CCN(C(=O)/C=C/c2ccc(Sc3ccccc3C)c(C(F)(F)F)c2)CC1 [Example 26] | – | – | 94% | 110 nM | – | – | 100% |
| O=C(/C=C/c1ccc(Sc2ccccc2Br)c(Cl)c1)N1CCCCC1CO (stereo not drawn) [Example 16, (2-(Bromophenyl)[2-chloro-4-(E-((2-hydroxymethyl)piperidin-1-yl)carbonyl)ethenyl)phenyl]sulfide] | – | – | 86% | 300 nM | – | – | 100% |

Further lines, with some results ahead:

| inhibition at 4 µM [1] | IC50 [2, 4] | % inhibition @ 4 μM [1] | IC50 [2, 5] | IC50 ([2]; Homo sapiens, JY-8 cells on immobilized ICAM-1/Ig) | Structure (SMILES) | inhibition at 0.6 µM [3] | % inhibition @ 0.6 μM [3] |
| --- | --- | --- | --- | --- | --- | --- | --- |
| 88% | 50 nM | – | – | – | CC(=O)N1CCN(C(=O)/C=C/c2ccc(Sc3ccccc3C)c([N+](=O)[O-])c2)CC1 [Example 45, (2-Methylphenyl)[2-nitro-4-(E-((4-acetylpiperazin-1-yl)carbonyl)ethenyl)phenyl]sulfide] | 100% | – |
| 87% | 60 nM | – | – | – | CC(=O)N1CCN(C(=O)/C=C/c2ccc(Sc3ccccc3Cl)c([N+](=O)[O-])c2)CC1 [Example 46, (2-Chlorophenyl)[2-nitro-4-(E-((4-acetylpiperazin-1-yl)carbonyl)ethenyl)phenyl]sulfide] | 100% | – |
| 89% | 430 nM | – | – | – | CC(=O)N1CCN(C(=O)/C=C/c2ccc(Sc3ccc(Br)cc3)c([N+](=O)[O-])c2)CC1 [Example 35, (4-Bromophenyl)[2-nitro-4-(E-((4-acetylpiperazin-1-yl)carbonyl)ethenyl)phenyl]sulfide] | 100% | – |
| 95% | – | – | – | 30 nM | CC(=O)N1CCN(C(=O)/C=C/c2ccc(Sc3ccccc3C=O)c([N+](=O)[O-])c2)CC1 [Example 60, (2-Formylphenyl)[2-nitro-4-(E-((4-acetylpiperazin-1-yl)carbonyl)ethenyl)phenyl]sulfide] | 100% | – |
| 91% | 70 nM | – | – | – | CC(=O)N1CCN(C(=O)/C=C/c2ccc(Sc3cccc(Cl)c3Cl)c([N+](=O)[O-])c2)CC1 [Example 34, (2,3-Dichlorophenyl)[2-nitro-4-(E-((4-acetylpiperazin-1-yl)carbonyl)ethenyl)phenyl]sulfide] | 100% | – |
| – | – | 94% | 160 nM | – | Cc1ccccc1Sc1ccc(/C=C/C(=O)N2CCOCC2)cc1C(F)(F)F [Example 27, (2-Methylphenyl)[2-trifluoromethyl-4-(E-((1-morpholinyl)carbonyl)ethenyl)phenyl]sulfide] | – | 100% |
| 93% | 20 nM | – | – | – | CCc1ccccc1Sc1ccc(/C=C/C(=O)N2CCN(C(C)=O)CC2)cc1[N+](=O)[O-] [Example 49, (2-Ethylphenyl)[2-nitro-4-(E-((4-acetylpiperazin-1-yl)carbonyl)ethenyl)phenyl]sulfide] | 100% | – |
| 83% | 110 nM | – | – | – | CCN(CC)C(=O)N1CCN(C(=O)/C=C/c2ccc(Sc3ccc(Cl)cc3Cl)c([N+](=O)[O-])c2)CC1 [Example 41, (2,4-Dichlorophenyl)[2-nitro-4-(E-((4-(diethylaminocarbonyl)piperazin-1-yl)carbonyl)ethenyl)phenyl]sulfide] | 100% | – |
| 93% | 250 nM | – | – | – | Cc1ccccc1Sc1ccc(/C=C/C(=O)NCCCN2CCCC2=O)cc1C(F)(F)F [Example 30, (2-Methylphenyl)[2-trifluoromethyl-4-(E-((3-(2-oxopyrrolidin-1-yl)propylamino)carbonyl)ethenyl)phenyl]sulfide] | 100% | – |

— USRE39197E1, “Cell adhesion-inhibiting antiinflammatory and immune-suppressive compounds” (Abbott Laboratories, priority 1998, dated 2006)
